From patent publication US6960574B2, “Antagonists of RF-amide neuropeptides” (University of Florida, priority 2002, dated 2005)
Square brackets hold non-standard residues; d marks the D form. Peptide text beside a SMILES is read from it. * marks the point of attachment. ξ: configuration not given here. Dansyl = CN(C)c1cccc2c(S(=O)(=O)*)cccc12; ξL = CC(C)CC(N)C(=O)O

Tested on: receptor labeled by the radioiodinated analogue of 1 (4, [125I]-YLFQPQRF-NH2); neuropeptide FF receptor
Test: Competitive radioligand binding against 4 ([125I]Y8F-amide)
Conditions: mixture-based positional scanning; difference from averaged radioligand displacement of whole library (0); about 80 a.u. = 10-fold change in Ki
Source text: Additionally, three-dimensional (3-D) molecular models of the known smaller-size neuropeptide FF antagonists 3 and 3a were constructed and their low-energy conformations were obtained in the AMBER force-field [Weiner, et al., J. Comput. Chem. 1986, 7, […].] by molecular dynamics calculations involving simulated annealing. A semi-empirical quantum chemical method with the PM3 parameterization [Stewart, J. Comput. Chem. 1989, 10, 209-220.] was used for the final geometry optimization. […] At least one of the rings in domain B is aromatic. No similarity between 3 and 3a outside these domains were apparent; therefore, the simultaneous presence of A and B domains in the structure of neuropeptide FF (1) antagonists is critical to the invention. Apparently, structural subunits (domain C) outside domains A and B should function in a cooperative manner in directing the pharmacophores into proper geometric positions when improved binding to the cognate receptor is to be obtained, which is associated with the improvement of the desired pharmacological effect. An approach involving mixture-based synthetic combinatorial libraries and positional scanning [(a) Houghten, et al., J. Med Chem. 1999, 42, 3743-3778.] was adopted in the search for preferred structural motifs in domain C that assist in achieving this objective in this invention. To allow for the use of 3 as a reference in this process, the guadinino group (A) was incorporated as part of an L-2-amino-5-{[amino(imino)methyl]amino}pentanoyl (arginyl, R, Arg) residue and 5-dimethylamino-1-naphthalenesulphonyl (dansyl) was chosen to form B (However, it must be emphasized that both R and dansyl are replaceable with moieties that bestow A and B domain attributes described in the invention).
Upon screening for residues to replace the glutamine of 3, serine (S) was the only building block in this position that increased the displacement of 4 in the radioligand-binding assay. Therefore, motifs present in dansyl-Gly-Ser-Arg-NH2, dansyl-Gly-Gln-Arg-NH2, dansyl-Gln-Ser-Arg-NH2, and dansyl-Gln-Gln-Arg-NH2 were chosen based on their affinity to the cognate receptor for further consideration as primary templates when designing the domain C of the compounds described in the invention herein. […]

Relative Binding Index (RBI) [a.u.]	SMILES
−32	C[C@H](NC(=O)[C@H](CCC(=O)O)NS(=O)(=O)c1cccc2c(N(C)C)cccc12)C(=O)N[C@@H](CCCNC(=N)N)C(N)=O [Dansyl-EAR-amide] (Dansyl-Glu-Ala-Arg-NH2)
−1	CN(C)c1cccc2c(S(=O)(=O)N[C@@H](CCC(=O)O)C(=O)N[C@@H](CC(=O)O)C(=O)N[C@@H](CCCNC(=N)N)C(N)=O)cccc12 [Dansyl-EDR-amide] (Dansyl-Glu-Asp-Arg-NH2)
17	CN(C)c1cccc2c(S(=O)(=O)N[C@@H](CCC(=O)O)C(=O)N[C@@H](CCC(=O)O)C(=O)N[C@@H](CCCNC(=N)N)C(N)=O)cccc12 [Dansyl-EER-amide] (Dansyl-Glu-Glu-Arg-NH2)
15	CN(C)c1cccc2c(S(=O)(=O)N[C@@H](CCC(=O)O)C(=O)N[C@@H](Cc3ccccc3)C(=O)N[C@@H](CCCNC(=N)N)C(N)=O)cccc12 [Dansyl-EFR-amide] (Dansyl-Glu-Phe-Arg-NH2)
22	CN(C)c1cccc2c(S(=O)(=O)N[C@@H](CCC(=O)O)C(=O)NCC(=O)N[C@@H](CCCNC(=N)N)C(N)=O)cccc12 [Dansyl-EGR-amide] (Dansyl-Glu-Gly-Arg-NH2)
11	CN(C)c1cccc2c(S(=O)(=O)N[C@@H](CCC(=O)O)C(=O)N[C@@H](Cc3cnc[nH]3)C(=O)N[C@@H](CCCNC(=N)N)C(N)=O)cccc12 [Dansyl-EHR-amide] (Dansyl-Glu-His-Arg-NH2)
23	CC[C@H](C)[C@H](NC(=O)[C@H](CCC(=O)O)NS(=O)(=O)c1cccc2c(N(C)C)cccc12)C(=O)N[C@@H](CCCNC(=N)N)C(N)=O [Dansyl-EIR-amide] (Dansyl-Glu-Ile-Arg-NH2)
14	CN(C)c1cccc2c(S(=O)(=O)N[C@@H](CCC(=O)O)C(=O)N[C@@H](CCCCN)C(=O)N[C@@H](CCCNC(=N)N)C(N)=O)cccc12 [Dansyl-EKR-amide] (Dansyl-Glu-Lys-Arg-NH2)
8	CC(C)C[C@H](NC(=O)[C@H](CCC(=O)O)NS(=O)(=O)c1cccc2c(N(C)C)cccc12)C(=O)N[C@@H](CCCNC(=N)N)C(N)=O [Dansyl-ELR-amide] (Dansyl-Glu-Leu-Arg-NH2)
17	CSCC[C@H](NC(=O)[C@H](CCC(=O)O)NS(=O)(=O)c1cccc2c(N(C)C)cccc12)C(=O)N[C@@H](CCCNC(=N)N)C(N)=O [Dansyl-EMR-amide] (Dansyl-Glu-Met-Arg-NH2)
18	CN(C)c1cccc2c(S(=O)(=O)N[C@@H](CCC(=O)O)C(=O)N[C@@H](CC(N)=O)C(=O)N[C@@H](CCCNC(=N)N)C(N)=O)cccc12 [Dansyl-ENR-amide] (Dansyl-Glu-Asn-Arg-NH2)
30	CN(C)c1cccc2c(S(=O)(=O)N[C@@H](CCC(=O)O)C(=O)N[C@@H](CCC(N)=O)C(=O)N[C@@H](CCCNC(=N)N)C(N)=O)cccc12 [Dansyl-EQR-amide] (Dansyl-Glu-Gln-Arg-NH2)
15	CN(C)c1cccc2c(S(=O)(=O)N[C@@H](CCC(=O)O)C(=O)N[C@@H](CCCNC(=N)N)C(=O)N[C@@H](CCCNC(=N)N)C(N)=O)cccc12 [Dansyl-ERR-amide] (Dansyl-Glu-Arg-Arg-NH2)
37	CN(C)c1cccc2c(S(=O)(=O)N[C@@H](CCC(=O)O)C(=O)N[C@@H](CO)C(=O)N[C@@H](CCCNC(=N)N)C(N)=O)cccc12 [Dansyl-ESR-amide] (Dansyl-Glu-Ser-Arg-NH2)
22	CC(O)C(NC(=O)C(CCC(=O)O)NS(=O)(=O)c1cccc2c(N(C)C)cccc12)C(=O)NC(CCCNC(=N)N)C(N)=O (stereo not drawn) [Dansyl-ETR-amide] (Dansyl-Glu-Thr-Arg-NH2; configuration not given here)
12	CC(C)[C@H](NC(=O)[C@H](CCC(=O)O)NS(=O)(=O)c1cccc2c(N(C)C)cccc12)C(=O)N[C@@H](CCCNC(=N)N)C(N)=O [Dansyl-EVR-amide] (Dansyl-Glu-Val-Arg-NH2)
15	CN(C)c1cccc2c(S(=O)(=O)N[C@@H](CCC(=O)O)C(=O)N[C@@H](Cc3ccc(O)cc3)C(=O)N[C@@H](CCCNC(=N)N)C(N)=O)cccc12 [Dansyl-EYR-amide] (Dansyl-Glu-Tyr-Arg-NH2)

Second part, the compound before the results:

SMILES	Relative Binding Index (RBI) [a.u.]
CC(C)[C@H](NC(=O)[C@H](CC(=O)O)NS(=O)(=O)c1cccc2c(N(C)C)cccc12)C(=O)N[C@@H](CCCNC(=N)N)C(N)=O [Dansyl-DVR-amide] (Dansyl-Asp-Val-Arg-NH2)	−10
CN(C)c1cccc2c(S(=O)(=O)N[C@@H](CC(=O)O)C(=O)N[C@@H](Cc3c[nH]c4ccccc34)C(=O)N[C@@H](CCCNC(=N)N)C(N)=O)cccc12 [Dansyl-DWR-amide] (Dansyl-Asp-Trp-Arg-NH2)	3
CN(C)c1cccc2c(S(=O)(=O)N[C@@H](CC(=O)O)C(=O)N[C@@H](Cc3ccc(O)cc3)C(=O)N[C@@H](CCCNC(=N)N)C(N)=O)cccc12 [Dansyl-DYR-amide] (Dansyl-Asp-Tyr-Arg-NH2)	−7
CN(C)c1cccc2c(S(=O)(=O)N[C@@H](CCC(=O)O)C(=O)N3CCC[C@H]3C(=O)N[C@@H](CCCNC(=N)N)C(N)=O)cccc12 [Dansyl-EPR-amide] (Dansyl-Glu-Pro-Arg-NH2)	20
CN(C)c1cccc2c(S(=O)(=O)N[C@@H](CCC(=O)O)C(=O)N[C@@H](Cc3c[nH]c4ccccc34)C(=O)N[C@@H](CCCNC(=N)N)C(N)=O)cccc12 [Dansyl-EWR-amide] (Dansyl-Glu-Trp-Arg-NH2)	25
C[C@H](NC(=O)[C@H](Cc1ccccc1)NS(=O)(=O)c1cccc2c(N(C)C)cccc12)C(=O)N[C@@H](CCCNC(=N)N)C(N)=O [Dansyl-FAR-amide] (Dansyl-Phe-Ala-Arg-NH2)	−40
CN(C)c1cccc2c(S(=O)(=O)N[C@@H](Cc3ccccc3)C(=O)N[C@@H](CC(=O)O)C(=O)N[C@@H](CCCNC(=N)N)C(N)=O)cccc12 [Dansyl-FDR-amide] (Dansyl-Phe-Asp-Arg-NH2)	−9
CN(C)c1cccc2c(S(=O)(=O)N[C@@H](Cc3ccccc3)C(=O)N[C@@H](CCC(=O)O)C(=O)N[C@@H](CCCNC(=N)N)C(N)=O)cccc12 [Dansyl-FER-amide] (Dansyl-Phe-Glu-Arg-NH2)	9
CN(C)c1cccc2c(S(=O)(=O)N[C@@H](Cc3ccccc3)C(=O)N[C@@H](Cc3ccccc3)C(=O)N[C@@H](CCCNC(=N)N)C(N)=O)cccc12 [Dansyl-FFR-amide] (Dansyl-Phe-Phe-Arg-NH2)	8
CN(C)c1cccc2c(S(=O)(=O)N[C@@H](Cc3ccccc3)C(=O)NCC(=O)N[C@@H](CCCNC(=N)N)C(N)=O)cccc12 [Dansyl-FGR-amide] (Dansyl-Phe-Gly-Arg-NH2)	15
CN(C)c1cccc2c(S(=O)(=O)N[C@@H](Cc3ccccc3)C(=O)N[C@@H](Cc3cnc[nH]3)C(=O)N[C@@H](CCCNC(=N)N)C(N)=O)cccc12 [Dansyl-FHR-amide] (Dansyl-Phe-His-Arg-NH2)	4
CCC(C)C(NC(=O)C(Cc1ccccc1)NS(=O)(=O)c1cccc2c(N(C)C)cccc12)C(=O)NC(CCCNC(=N)N)C(N)=O (stereo not drawn) [Dansyl-FIR-amide] (Dansyl-Phe-Ile-Arg-NH2; configuration not given here)	16
CN(C)c1cccc2c(S(=O)(=O)N[C@@H](Cc3ccccc3)C(=O)N[C@@H](CCCCN)C(=O)N[C@@H](CCCNC(=N)N)C(N)=O)cccc12 [Dansyl-FKR-amide] (Dansyl-Phe-Lys-Arg-NH2)	7
CC(C)CC(NC(=O)[C@H](Cc1ccccc1)NS(=O)(=O)c1cccc2c(N(C)C)cccc12)C(=O)N[C@@H](CCCNC(=N)N)C(N)=O (stereo partly shown) [Dansyl-FLR-amide] (Dansyl-Phe-[ξL]-Arg-NH2)	1
CSCC[C@H](NC(=O)[C@H](Cc1ccccc1)NS(=O)(=O)c1cccc2c(N(C)C)cccc12)C(=O)N[C@@H](CCCNC(=N)N)C(N)=O [Dansyl-FMR-amide] (Dansyl-Phe-Met-Arg-NH2)	9
CN(C)c1cccc2c(S(=O)(=O)N[C@@H](Cc3ccccc3)C(=O)N[C@@H](CC(N)=O)C(=O)N[C@@H](CCCNC(=N)N)C(N)=O)cccc12 [Dansyl-FNR-amide] (Dansyl-Phe-Asn-Arg-NH2)	11
CN(C)c1cccc2c(S(=O)(=O)N[C@@H](Cc3ccccc3)C(=O)N3CCC[C@H]3C(=O)N[C@@H](CCCNC(=N)N)C(N)=O)cccc12 [Dansyl-FPR-amide]	13
